Assay results as given in patent US12565522B2, “Micropeptide HMMW and application thereof” (NANJING ANJI BIOTECHNOLOGY CO., LTD., priority 2019, dated 2026).
No end group written: not given here.

Key:
Assay type in all cases: cell-based, human
Settings in all cases: 24 h
[1] = test system: A431 cells of skin cancer; experiment: transwell migration test
[2] = test system: A549 cells of lung cancer; experiment: transwell migration test
[3] = test system: MDA-MB-231 cells of breast cancer; experiment: transwell migration test
[4] = test system: MGC803 cells of stomach cancer; experiment: transwell migration test
[5] = test system: SW579 cells of thyroid cancer; experiment: transwell migration test
[6] = test system: TE13 cells of esophageal squamous cell carcinoma; experiment: transwell migration test
[7] = test system: UOK262 cells of kidney cancer; experiment: transwell migration test
[8] = test system: A431 cells of skin cancer; experiment: Matrigel transwell invasion test
Outline: (§1)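 Read-out: invasion inhibition rate from crystal violet-stained invaded cells counted in four microscope fields, test vs 0 μM control. Cells at 1×10^5 cells/mL in blank medium on Matrigel-coated inserts, peptide 1, 4 or 16 μM, 10% FBS chemoattractant, 24 h, 37 °C, 5% CO2; n=3, mean±SD.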

[9] = test system: A549 cells of lung cancer; experiment: Matrigel transwell invasion test
Outline: as §1

[10] = test system: MDA-MB-231 cells of breast cancer; experiment: Matrigel transwell invasion test
Outline: as §1

[11] = test system: MGC803 cells of stomach cancer; experiment: Matrigel transwell invasion test
Outline: as §1

[12] = test system: SCC4 cells of head and neck cancer; experiment: Matrigel transwell invasion test
Outline: as §1

[13] = test system: SW579 cells of thyroid cancer; experiment: Matrigel transwell invasion test
Outline: as §1

[14] = test system: TE13 cells of esophageal squamous cell carcinoma; experiment: Matrigel transwell invasion test
Outline: as §1

[15] = test system: UOK262 cells of kidney cancer; experiment: Matrigel transwell invasion test
Outline: as §1

Substance: MGSTYNKRHSPRRSSVEAKMQSTSCSVRKSSTVTAWPAVVLLLSWGQRRGG-OH [HMMW-III]
- migration inhibition rate ([1]; dose 1 μM): 32.13%
- migration inhibition rate ([1]; dose 4 μM): 54.27%
- migration inhibition rate ([1]; dose 16 μM): 72.21%
- migration inhibition rate ([2]; dose 1 μM): 33.01%
- migration inhibition rate ([2]; dose 4 μM): 54.93%
- migration inhibition rate ([2]; dose 16 μM): 72.42%
- migration inhibition rate ([3]; dose 1 μM): 27.06%
- migration inhibition rate ([3]; dose 4 μM): 51.34%
- migration inhibition rate ([3]; dose 16 μM): 74.38%
- migration inhibition rate ([4]; dose 1 μM): 25.61%
- migration inhibition rate ([4]; dose 4 μM): 52.45%
- migration inhibition rate ([4]; dose 16 μM): 74.80%
- migration inhibition rate ([5]; dose 1 μM): 18.83%
- migration inhibition rate ([5]; dose 4 μM): 50.04%
- migration inhibition rate ([5]; dose 16 μM): 71.92%
- migration inhibition rate ([6]; dose 1 μM): 22.76%
- migration inhibition rate ([6]; dose 4 μM): 41.29%
- migration inhibition rate ([6]; dose 16 μM): 65.32%
- migration inhibition rate ([7]; dose 1 μM): 16.39%
- migration inhibition rate ([7]; dose 4 μM): 41.38%
- migration inhibition rate ([7]; dose 16 μM): 70.47%
- invasion inhibition rate ([8]; dose 1 μM): 33.70%
- invasion inhibition rate ([8]; dose 4 μM): 53.21%
- invasion inhibition rate ([8]; dose 16 μM): 67.33%
- invasion inhibition rate ([9]; dose 1 μM): 32.13%
- invasion inhibition rate ([9]; dose 4 μM): 52.30%
- invasion inhibition rate ([9]; dose 16 μM): 66.09%
- invasion inhibition rate ([10]; dose 1 μM): 28.91%
- invasion inhibition rate ([10]; dose 4 μM): 49.82%
- invasion inhibition rate ([10]; dose 16 μM): 68.36%
- invasion inhibition rate ([11]; dose 1 μM): 25.11%
- invasion inhibition rate ([11]; dose 4 μM): 53.38%
- invasion inhibition rate ([11]; dose 16 μM): 67.61%
- invasion inhibition rate ([12]; dose 1 μM): 22.75%
- invasion inhibition rate ([12]; dose 4 μM): 48.24%
- invasion inhibition rate ([12]; dose 16 μM): 75.84%
- invasion inhibition rate ([13]; dose 1 μM): 18.63%
- invasion inhibition rate ([13]; dose 4 μM): 42.76%
- invasion inhibition rate ([13]; dose 16 μM): 63.89%
- invasion inhibition rate ([14]; dose 1 μM): 21.23%
- invasion inhibition rate ([14]; dose 4 μM): 41.81%
- invasion inhibition rate ([14]; dose 16 μM): 63.31%
- invasion inhibition rate ([15]; dose 1 μM): 34.37%
- invasion inhibition rate ([15]; dose 4 μM): 55.15%
- invasion inhibition rate ([15]; dose 16 μM): 67.23%

Substance: MGSTYNPGFSPRRSSVEAKMQSTSCSVRKSSTVTAWPAVVLLLSWGQRRGG-OH [HMMW-V]
- migration inhibition rate ([1]; dose 1 μM): 30.14%
- migration inhibition rate ([1]; dose 4 μM): 54.12%
- migration inhibition rate ([1]; dose 16 μM): 70.12%
- migration inhibition rate ([2]; dose 1 μM): 35.01%
- migration inhibition rate ([2]; dose 4 μM): 53.91%
- migration inhibition rate ([2]; dose 16 μM): 71.36%
- migration inhibition rate ([3]; dose 1 μM): 28.07%
- migration inhibition rate ([3]; dose 4 μM): 50.24%
- migration inhibition rate ([3]; dose 16 μM): 74.18%
- migration inhibition rate ([4]; dose 1 μM): 27.64%
- migration inhibition rate ([4]; dose 4 μM): 54.41%
- migration inhibition rate ([4]; dose 16 μM): 75.82%
- migration inhibition rate ([5]; dose 1 μM): 17.45%
- migration inhibition rate ([5]; dose 4 μM): 51.13%
- migration inhibition rate ([5]; dose 16 μM): 71.93%
- migration inhibition rate ([6]; dose 1 μM): 23.74%
- migration inhibition rate ([6]; dose 4 μM): 42.23%
- migration inhibition rate ([6]; dose 16 μM): 64.31%
- migration inhibition rate ([7]; dose 1 μM): 18.29%
- migration inhibition rate ([7]; dose 4 μM): 42.28%
- migration inhibition rate ([7]; dose 16 μM): 72.43%
- invasion inhibition rate ([8]; dose 1 μM): 32.19%
- invasion inhibition rate ([8]; dose 4 μM): 51.35%
- invasion inhibition rate ([8]; dose 16 μM): 69.29%
- invasion inhibition rate ([9]; dose 1 μM): 31.19%
- invasion inhibition rate ([9]; dose 4 μM): 51.27%
- invasion inhibition rate ([9]; dose 16 μM): 64.25%
- invasion inhibition rate ([10]; dose 1 μM): 27.25%
- invasion inhibition rate ([10]; dose 4 μM): 48.37%
- invasion inhibition rate ([10]; dose 16 μM): 70.50%
- invasion inhibition rate ([11]; dose 1 μM): 26.53%
- invasion inhibition rate ([11]; dose 4 μM): 50.24%
- invasion inhibition rate ([11]; dose 16 μM): 68.38%
- invasion inhibition rate ([12]; dose 1 μM): 20.34%
- invasion inhibition rate ([12]; dose 4 μM): 46.26%
- invasion inhibition rate ([12]; dose 16 μM): 74.71%
- invasion inhibition rate ([13]; dose 1 μM): 19.09%
- invasion inhibition rate ([13]; dose 4 μM): 44.23%
- invasion inhibition rate ([13]; dose 16 μM): 64.14%
- invasion inhibition rate ([14]; dose 1 μM): 20.29%
- invasion inhibition rate ([14]; dose 4 μM): 42.74%
- invasion inhibition rate ([14]; dose 16 μM): 66.69%
- invasion inhibition rate ([15]; dose 1 μM): 33.43%
- invasion inhibition rate ([15]; dose 4 μM): 53.27%
- invasion inhibition rate ([15]; dose 16 μM): 66.14%
